The source of these data is patent publication US11607422B2, “Uttroside B and derivatives thereof as therapeutics for hepatocellular carcinoma” (Rajiv Gandhi Centre for Biotechnology, an Autonomous …, priority 2016, dated 2023).

The IC50 is the midpoint of a concentration-inhibition curve. Read a high IC50 as weaker potency in that assay.

The subject of one assay is A549. Briefly: MTT cell viability assay in A549 cells. The class given is cell-based. The note with it: 72 h. How it is done: (§1) FIG. 2A is a graph comparison of IC50 of Uttroside B in a panel of cancer cells of different origin. The cancer cell lines HeLa, A375, HepG2, MDA-MB-231, HL 60, A549 and HCT116 were treated with Uttroside B as indicated, incubated for 72 h and the cell viability was assessed by MTT assay. FIG. 2B is a graph showing dose dependent effect of Uttroside B in the liver cancer cell lines and in normal immortalized hepatocytes. The liver cancer cell lines HepG2, Hep3B, SKHEP-1, Huh-7 and normal hepatocytes (Chang liver), were treated with Uttroside B incubated for 72 h and the cell viability was assessed by MTT assay. FIG. 2C is a graph comparison of IC50 of Uttroside B with sorafenib. HepG2 cells were treated with Uttroside B as indicated, incubated for 72 h, and the cell viability was assessed by MTT assay. […] The clones developed were counted and plotted as a graph. Colony containing more than four cells was counted as one clone. […]
(§2) MTT [3-(4,5-dimethylthiazole-2-yl)-2,5-diphenyltetrazolium bromide] assay is a standard colorimetric assay, suitable for analyzing proliferation, viability, and cytotoxicity. […] After overnight incubation, cells were treated with different concentrations of organic extracts (25-250 μg/ml) of S. nigrum and the isolated compound Uttroside B (250-1250 nM) for 72 h and cytotoxicity was measured. […]
A general note: Formazan colour is commonly taken as a measure of viable cells.

The test system of assay [1] is MAPK pathway in HepG2 cells. Description: Western blot of MAPK phosphorylation (p-JNK, p-38, p-42/44). The class given is cell-based, human. How it is done:
FIGS. 4A-4E are images showing Uttroside B inhibits MAPK and mTOR signaling, some of the crucial survival signals in liver cancer. […] HepG2 cells were treated with Uttroside B for different time intervals (0-240 min) and the whole cell lysate was resolved on a 10% gel and immunoblotted against phospho-ERK1/2 and phospho-Akt antibodies. Taxol was used as a positive control. […] HepG2 cells were treated with Uttroside B at different time intervals and the whole cell lysate was resolved on an 8% gel and immunoblotted against phospho-mTOR (2448) and phospho-mTOR (2481) antibodies.
Western blot analysis. Approximately 0.5×10^6 cells were grown on 60 mm culture plates and exposed to drugs as indicated for the desired time. The cells were then scraped out, washed in ice cold 1× PBS and pelleted down at 13000 rpm for 2 min. […]
For orientation: Immunoblotting shows a protein as a band on a membrane.

The test system of another assay is A375. Description: MTT cell viability assay in A375 cells. The class given is cell-based. The settings on record: 72 h. How it is done: as §1, §2
The subject of another assay is HepG2 cells. Briefly: Clonogenic assay in HepG2 cells. The class given is cell-based, human. The note with it: 72 h treatment, then 1 week. How it is done:
FIG. 2A is a graph comparison of IC50 of Uttroside B in a panel of cancer cells of different origin. The cancer cell lines HeLa, A375, HepG2, MDA-MB-231, HL 60, A549 and HCT116 were treated with Uttroside B as indicated, incubated for 72 h and the cell viability was assessed by MTT assay. FIG. 2B is a graph showing dose dependent effect of Uttroside B in the liver cancer cell lines and in normal immortalized hepatocytes. The liver cancer cell lines HepG2, Hep3B, SKHEP-1, Huh-7 and normal hepatocytes (Chang liver), were treated with Uttroside B incubated for 72 h and the cell viability was assessed by MTT assay. FIG. 2C is a graph comparison of IC50 of Uttroside B with sorafenib. HepG2 cells were treated with Uttroside B as indicated, incubated for 72 h, and the cell viability was assessed by MTT assay. FIG. 2D is an image of the morphological changes induced by Uttroside B in HepG2 cells. HepG2 cells were treated with Uttroside B as indicated and incubated for 72 h. FIG. 2E is an image showing Uttroside B inhibits the clonogenic potential of HepG2 cells. HepG2 cells were treated with different concentrations of Uttroside B for 72 h and the clonogenic assay was performed. […] The clones developed were counted and plotted as a graph. Colony containing more than four cells was counted as one clone. […]

Take `C[C@H](CC[C@@]1(O)O[C@H]2C[C@H]3[C@@H]4CC[C@H]5C[C@@H](O[C@@H]6O[C@H](CO)[C@H](O[C@@H]7O[C@H](CO)[C@@H](O)[C@H](O[C@@H]8OC[C@@H](O)[C@H](O)[C@H]8O)[C@H]7O[C@@H]7O[C@H](CO)[C@@H](O)[C@H](O)[C@H]7O)[C@H](O)[C@H]6O)CC[C@]5(C)[C@H]4CC[C@]3(C)[C@H]2[C@@H]1C)CO[C@@H]1O[C@H](CO)[C@@H](O)[C@H](O)[C@H]1O` [Uttroside B]: the IC50 in the assay with A549 turned out to be 1 µM. Also, in assay [1], the “PMA-induced activation of p-JNK, p-38 and p-42/44” value is on record as “down-regulated”; the “basal activation of MAPK pathway (p-42/44, p-JNK)” value was “significantly down-regulated”. This molecule also came in with an IC50 in the assay on A375 of 1.6 µM. Besides, the “anti-clonogenic potential (colonies formed)” value with HepG2 cells is “drastic dose dependent reduction in both number and size of the colonies formed”.
